Measured values: patent publication US20260285850A1, “SUBSTITUTED OXAZOLIDINONES AND IMIDAZOLINONES AS HERBICIDES” (FMC CORPORATION, priority 2023, published 2026)

Experiments:
Format in all cases: in vivo
[1] = tested on: green foxtail (Setaria viridis); test: Test A postemergence application, visual injury rating 0-100
How it was run: (§1)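 Rating: visual, day 10, untreated plants as reference, 0 no effect to 100 full control. Plants were in loam-sand and were treated either preemergence via directed soil spray or postemergence at the one- to two-leaf stage.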

[2] = tested on: blackgrass (Alopecurus myosuroides); test: as above
How it was run: as §1

kochia (Bassia scoparia) [3] = test: as above
How it was run: as §1

corn (Zea mays) [4] = test: as above
How it was run: as §1

[5] = tested on: ragweed (common ragweed, Ambrosia artemisiifolia); test: as above
How it was run: as §1

soybean (Glycine max) [6] = test: as above
How it was run: as §1

[7] = tested on: palmer (palmer amaranth, palmer pigweed, Amaranthus palmeri); test: as above
How it was run: as §1

[8] = tested on: barnyardgrass (Echinochloa crus-galli); test: as above
How it was run: as §1

[9] = tested on: ryegrass, Italian (italian ryegrass, Lolium multiflorum); test: as above
How it was run: as §1

[10] = tested on: wheat (Triticum aestivum); test: as above
How it was run: as §1

[11] = tested on: galium (catchweed bedstraw, Galium aparine); test: as above
How it was run: as §1

[12] = tested on: oat, wild (wild oat, Avena fatua); test: as above
How it was run: as §1

[13] = tested on: barnyardgrass (Echinochloa crusgalli); test: Test B flooded paddy test, visual plant response rating 0-100; conditions: 250 g ai/ha, Flood, applied to paddy water, evaluated after 13 days
How it was run: (§2)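 Visual evaluation after 13 days. Water-applied treatment, 3 cm flood depth held constant, plants at 2-leaf stage at treatment.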

[14] = tested on: ducksalad (Heteranthera limosa); test: as above; conditions: 250 g ai/ha, Flood, applied to paddy water, evaluated after 13 days
How it was run: as §2

rice (Oryza sativa) = test: as above; conditions: 250 g ai/ha, Flood, applied to paddy water, evaluated after 13 days
How it was run: as §2

[15] = tested on: sedge, umbrella (small-flower umbrella sedge, Cyperus difformis); test: as above; conditions: 250 g ai/ha, Flood, applied to paddy water, evaluated after 13 days
How it was run: as §2

[16] = tested on: green foxtail (Setaria viridis); test: Test A preemergence soil spray, visual injury rating 0-100; conditions: 10 days
How it was run: as §1

[17] = tested on: blackgrass (Alopecurus myosuroides); test: as above; conditions: 10 days
How it was run: as §1

kochia (Bassia scoparia) [18] = test: as above; conditions: 10 days
How it was run: as §1

corn (Zea mays) [19] = test: as above; conditions: 10 days
How it was run: as §1

[20] = tested on: ragweed (common ragweed, Ambrosia artemisiifolia); test: as above; conditions: 10 days
How it was run: as §1

soybean (Glycine max) [21] = test: as above; conditions: 10 days
How it was run: as §1

[22] = tested on: palmer (palmer amaranth, palmer pigweed, Amaranthus palmeri); test: as above; conditions: 10 days
How it was run: as §1

[23] = tested on: barnyardgrass (Echinochloa crus-galli); test: as above; conditions: 10 days
How it was run: as §1

[24] = tested on: ryegrass, Italian (italian ryegrass, Lolium multiflorum); test: as above; conditions: 10 days
How it was run: as §1

[25] = tested on: wheat (Triticum aestivum); test: as above; conditions: 10 days
How it was run: as §1

[26] = tested on: oat, wild (wild oat, Avena fatua); test: as above; conditions: 10 days
How it was run: as §1

[27] = 62 g ai/ha, postemergence, 10 days, 0 = no effect, 100 = complete control
[28] = Postemergence, 16 g ai/ha, greenhouse 10 days, 0 no effect, 100 complete control
[29] = 62 g ai/ha, 0 = no effect, 100 = complete control

C=CC1(C(=O)NC2CC=C(C(=O)OC)C2)CN(c2cc(F)cc(F)c2)C(=O)O1 (racemic) [Compound 169]
90: Foxtail, Green plant response rating (0-100) [1, 27] | Foxtail, Green plant response rating (0 to 100 scale) [1, 28] | Ryegrass, Italian plant response rating (0-100) [9, 27] | Wheat plant response rating (0-100) [10, 27] | Wheat plant response rating (0 to 100 scale) [10, 28] | Oat, Wild plant response rating (0-100) [12, 27] | Oat, Wild plant response rating (0 to 100 scale) [12, 28] | Plant response rating, Barnyardgrass (0 to 100 scale, 0 is no effect and 100 is complete control) [13] | Foxtail, Green plant response rating (0-100) [16, 29] | Barnyardgrass plant response rating (0-100) [23, 29] | Ryegrass, Italian plant response rating ([24]; 16 g ai/ha, 0 to 100 scale) | Ryegrass, Italian plant response rating (0-100) [24, 29] | Wheat plant response rating (0-100) [25, 29]
95: Plant response rating, Rice (0 to 100 scale, 0 is no effect and 100 is complete control) (rice (Oryza sativa))
10: Ragweed plant response rating (0-100) [20, 29] | Soybean plant response rating (soybean (Glycine max) [21]; 16 g ai/ha, 0 to 100 scale) | Barnyardgrass plant response rating ([23]; 16 g ai/ha, 0 to 100 scale)
100: Blackgrass plant response rating (0-100) [2, 27] | Blackgrass plant response rating (0 to 100 scale) [2, 28] | Corn plant response rating (0-100) (corn (Zea mays) [4]; [27]) | Corn plant response rating (0 to 100 scale) (corn (Zea mays) [4]; [28]) | Barnyardgrass plant response rating (0-100) [8, 27] | Barnyardgrass plant response rating (0 to 100 scale) [8, 28] | Plant response rating, Ducksalad (0 to 100 scale, 0 is no effect and 100 is complete control) [14] | Plant response rating, Sedge, Umbrella (0 to 100 scale, 0 is no effect and 100 is complete control) [15]
70: Ragweed plant response rating (0-100) [5, 27] | Soybean plant response rating (0-100) (soybean (Glycine max) [6]; [27]) | Pigweed, Palmer plant response rating (0-100) [7, 27] | Galium plant response rating (0 to 100 scale) [11, 28]
80: Kochia plant response rating (0-100) (kochia (Bassia scoparia) [3]; [27]) | Kochia plant response rating (0 to 100 scale) (kochia (Bassia scoparia) [3]; [28]) | Ryegrass, Italian plant response rating (0 to 100 scale) [9, 28] | Galium plant response rating (0-100) [11, 27] | Wheat plant response rating ([25]; 16 g ai/ha, 0 to 100 scale)
20: Pigweed, Palmer plant response rating (0 to 100 scale) [7, 28] | Soybean plant response rating (0-100) (soybean (Glycine max) [21]; [29]) | Oat, Wild plant response rating ([26]; 16 g ai/ha, 0 to 100 scale)
0: Ragweed plant response rating (0 to 100 scale) [5, 28] | Foxtail, Green plant response rating ([16]; 16 g ai/ha, 0 to 100 scale) | Blackgrass plant response rating ([17]; 16 g ai/ha, 0 to 100 scale) | Kochia plant response rating (kochia (Bassia scoparia) [18]; 16 g ai/ha, 0 to 100 scale) | Corn plant response rating (corn (Zea mays) [19]; 16 g ai/ha, 0 to 100 scale) | Ragweed plant response rating ([20]; 16 g ai/ha, 0 to 100 scale) | Pigweed, Palmer plant response rating ([22]; 16 g ai/ha, 0 to 100 scale)
60: Soybean plant response rating (0 to 100 scale) (soybean (Glycine max) [6]; [28]) | Corn plant response rating (0-100) (corn (Zea mays) [19]; [29])
30: Blackgrass plant response rating (0-100) [17, 29]
50: Pigweed, Palmer plant response rating (0-100) [22, 29] | Oat, Wild plant response rating (0-100) [26, 29]
40: Kochia plant response rating (0-100) (kochia (Bassia scoparia) [18]; [29])
